Source: PubChem BioAssay (NCI)
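Method: 48-hour compound exposure of cells in 96-well plates, five concentrations, linear interpolation of endpoints. GI50: concentration for 50% inhibition of growth. TGI: concentration producing complete growth inhibition.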 Where a SMILES comes first, the peptide text is derived from it. [ ]: non-standard residue; d: D form. 2Nal = N[CH](Cc1ccc2ccccc2c1)C(=O)O

Assays:
Assay in all cases: NCI anticancer screen, dose series, 48 h
[1] = test system: SNB-19 CNS
[2] = test system: OVCAR-3 ovarian
[3] = test system: NCI-H226 lung
[4] = test system: KM12 colon
[5] = test system: SW-620 colon
[6] = test system: HT29 colon
[7] = test system: PC-3 prostate
[8] = test system: COLO 205 colon
[9] = test system: CAKI-1 renal
[10] = test system: NCI/ADR-RES ovarian

C/C=C(/C)C(=O)OC1C=C(CO)C(=O)C(OC(=O)C(C)(O)C(C)Cl)C1C(C)C (stereo unspecified)
GI50 [1]: 1.48 µM
TGI [1]: 2.91 µM
GI50 [2]: 0.648 µM
TGI [2]: 1.98 µM
GI50 [3]: 3.72 µM
TGI [3]: 13 µM
GI50 [4]: 1.75 µM
TGI [4]: 3.47 µM
GI50 [5]: 1.69 µM
TGI [5]: 4.08 µM
GI50 [6]: 1.47 µM
TGI [6]: 3.56 µM
GI50 [7]: 1.45 µM
TGI [7]: 3.3 µM
GI50 [8]: 1.3 µM
TGI [8]: 2.85 µM
GI50 [9]: 1.61 µM
TGI [9]: 2.98 µM
GI50 [10]: 2.31 µM
TGI [10]: 13.3 µM

C=C1NC(=O)C(CC(C(=O)C(=O)Nc2c(C)cccc2C(C)(C)C)C(=O)c2ccc3ccccc3c2)C(=O)N1 (stereo unspecified)
TGI [1]: > 100 µM
TGI [2]: > 100 µM
TGI [3]: > 100 µM
TGI [4]: > 100 µM
TGI [5]: > 100 µM
TGI [6]: > 100 µM
TGI [7]: > 100 µM
TGI [8]: > 100 µM
TGI [9]: > 100 µM
TGI [10]: > 100 µM

CC1CCc2c(c(CC3CC(=O)NC(=O)C3)nn2-c2ccccc2)C1 (stereo unspecified)
TGI [1]: > 100 µM
TGI [2]: > 100 µM
TGI [3]: > 100 µM
TGI [4]: > 100 µM
TGI [5]: > 100 µM
TGI [6]: > 100 µM
TGI [7]: > 100 µM
TGI [8]: > 100 µM
TGI [9]: > 100 µM
TGI [10]: > 100 µM

COc1cc2ncn(-c3cc(OCc4ccccc4C(F)(F)F)c(C(C)=O)s3)c2cc1OC
GI50 [1]: > 25 µM
TGI [1]: > 25 µM
GI50 [2]: > 25 µM
TGI [2]: > 25 µM
GI50 [3]: > 25 µM
TGI [3]: > 25 µM
GI50 [4]: > 25 µM
TGI [4]: > 25 µM
GI50 [5]: > 25 µM
TGI [5]: > 25 µM
GI50 [6]: > 25 µM
TGI [6]: > 25 µM
GI50 [7]: > 25 µM
TGI [7]: > 25 µM
GI50 [8]: > 25 µM
TGI [8]: > 25 µM
GI50 [9]: > 25 µM
TGI [9]: > 25 µM
GI50 [10]: > 25 µM
TGI [10]: > 25 µM

CCCN1C(=O)/C(=C/c2ccc(O)cc2)SC1=Nc1ccc(OC)cc1
GI50 [1]: 19.6 µM
TGI [1]: 45.5 µM
GI50 [2]: 17.3 µM
TGI [2]: 42.8 µM
GI50 [3]: 32 µM
TGI [3]: 95.5 µM
GI50 [4]: 10.6 µM
TGI [4]: 28.7 µM
GI50 [5]: 18 µM
TGI [5]: 48.3 µM
GI50 [6]: 22.1 µM
TGI [6]: 48.4 µM
GI50 [7]: 14 µM
TGI [7]: 31.7 µM
GI50 [8]: 36.6 µM
TGI [8]: > 100 µM
GI50 [9]: 12.9 µM
TGI [9]: 27.8 µM
GI50 [10]: 14 µM
TGI [10]: 29.5 µM

Cc1nnc(-c2ccc(C)c(-c3ccc(C(=O)NCc4ccc(Cl)cc4)cc3)c2)o1
GI50 [1]: > 22.6 µM
TGI [1]: > 25 µM
GI50 [2]: 11.6 µM
TGI [2]: > 25 µM
GI50 [3]: 6.93 µM
TGI [3]: > 25 µM
GI50 [4]: 11 µM
TGI [4]: > 25 µM
GI50 [5]: > 25 µM
TGI [5]: > 25 µM
GI50 [6]: 19.8 µM
TGI [6]: > 25 µM
GI50 [7]: 8.82 µM
TGI [7]: > 25 µM
GI50 [8]: 9.08 µM
TGI [8]: > 23.7 µM
GI50 [9]: 11.8 µM
TGI [9]: > 25 µM
GI50 [10]: 9.04 µM
TGI [10]: > 25 µM

CC[C@@H](C)Nc1cc(C(=O)NC2CC3CCC(C2)N3c2ccc(C(=O)C3CC3)cn2)c(C)cc1C(N)=O (stereo partly specified)
GI50 [1]: 0.0604 µM
TGI [1]: > 100 µM
GI50 [2]: 0.0672 µM
TGI [2]: > 88.1 µM
GI50 [3]: 0.0568 µM
TGI [3]: 51.1 µM
GI50 [4]: 0.0239 µM
TGI [4]: 0.0884 µM
GI50 [5]: 0.0323 µM
TGI [5]: > 100 µM
GI50 [6]: 0.0111 µM
TGI [6]: 15.9 µM
GI50 [7]: 0.0469 µM
TGI [7]: > 100 µM
GI50 [8]: 0.0182 µM
TGI [8]: 11.6 µM
GI50 [9]: 0.0597 µM
TGI [9]: > 100 µM
GI50 [10]: 1.06 µM
TGI [10]: > 100 µM

CO[C@@H]1[C@H]2[C@@H](C)c3ccoc3C[C@@H]2[C@@]2(C)CC[C@H](OC(=O)c3ccccc3)[C@](C)(C(=O)O)[C@]2(O)[C@@H]1OC(=O)c1ccccc1
GI50 [1]: 16.1 µM
TGI [1]: > 50 µM
GI50 [2]: 5.17 µM
TGI [2]: 15.9 µM
GI50 [3]: 9.77 µM
TGI [3]: 26.7 µM
GI50 [4]: 8.83 µM
TGI [4]: 33.5 µM
GI50 [5]: 9.3 µM
TGI [5]: 20 µM
GI50 [6]: 13.5 µM
TGI [6]: > 50 µM
GI50 [7]: 16.4 µM
TGI [7]: > 50 µM
GI50 [8]: 7.34 µM
TGI [8]: 15.2 µM
GI50 [9]: 7.46 µM
TGI [9]: 15.6 µM
GI50 [10]: 11.7 µM
TGI [10]: 35.3 µM

Cc1cc(NNC(=O)c2ccccc2O)nc(Nc2nc3ccccc3o2)n1
GI50 [1]: 1.86 µM
TGI [1]: 21.3 µM
GI50 [2]: 2.06 µM
TGI [2]: 15.6 µM
GI50 [3]: 1.66 µM
TGI [3]: 8.47 µM
GI50 [4]: 1.01 µM
TGI [4]: 35.2 µM
GI50 [5]: 3.03 µM
TGI [5]: 17.8 µM
GI50 [6]: 3.31 µM
TGI [6]: 15.4 µM
GI50 [7]: 0.912 µM
TGI [7]: 13.7 µM
GI50 [8]: 2.75 µM
TGI [8]: 15.4 µM
GI50 [9]: 1.73 µM
TGI [9]: 14.3 µM
GI50 [10]: 1.3 µM
TGI [10]: 7 µM

CC(C)C(NC(=O)C(CCCCN)NC(=O)C(Cc1c[nH]c2ccccc12)NC(=O)C(Cc1ccc(O)cc1)NC(=O)C(CS)NC(=O)C(N)Cc1ccc2ccccc2c1)C(=O)NC(CS)C(=O)NC(C(N)=O)C(C)O (stereo unspecified) (H-[2Nal]CYWKVCT-NH2; configuration not given here)
TGI [1]: > 100 µM
GI50 [2]: > 100 µM
TGI [2]: > 100 µM
TGI [3]: > 12.5 µM
GI50 [4]: > 100 µM
TGI [4]: > 100 µM
GI50 [5]: > 100 µM
TGI [5]: > 100 µM
GI50 [6]: > 100 µM
TGI [6]: > 100 µM
TGI [7]: > 12.5 µM
GI50 [8]: > 100 µM
TGI [8]: > 100 µM
GI50 [9]: > 100 µM
TGI [9]: > 100 µM
TGI [10]: > 12.5 µM

CN1CCN(Cc2ccc(NC(=O)c3cncc(C#Cc4cnn5ccccc45)c3)cc2C(F)(F)F)CC1
GI50 [1]: 1.58 µM
TGI [1]: 5.03 µM
GI50 [2]: 1.43 µM
TGI [2]: 3.62 µM
GI50 [3]: 0.592 µM
TGI [3]: 3.43 µM
GI50 [4]: 0.016 µM
TGI [4]: 1.14 µM
GI50 [5]: 0.382 µM
TGI [5]: 3.22 µM
GI50 [6]: 0.811 µM
TGI [6]: 4.89 µM
GI50 [7]: 1.01 µM
TGI [7]: 4.19 µM
GI50 [8]: 0.291 µM
TGI [8]: 1.05 µM
GI50 [9]: 0.94 µM
TGI [9]: 4.56 µM
GI50 [10]: 1.4 µM
TGI [10]: 5.51 µM

Nc1nc(N)c(N=Nc2ccc(C(=O)O)c(O)c2)c(N)n1
TGI [1]: > 100 µM
TGI [2]: 53.8 µM
TGI [3]: > 100 µM
TGI [4]: > 100 µM
TGI [5]: > 100 µM
TGI [6]: > 100 µM
TGI [7]: > 100 µM
TGI [8]: > 100 µM
TGI [9]: > 100 µM
TGI [10]: > 100 µM

CCOc1c(C#N)c2c(N)ncnc2n1C1OC(CO)C(O)C1O (stereo unspecified)
GI50 [1]: 9.1 µM
TGI [1]: > 100 µM
GI50 [2]: 2.53 µM
TGI [2]: 7.09 µM
GI50 [3]: 6.93 µM
TGI [3]: > 91.8 µM
GI50 [4]: 3.11 µM
TGI [4]: > 44.2 µM
GI50 [5]: 2.18 µM
TGI [5]: > 44.6 µM
GI50 [6]: 2.89 µM
TGI [6]: > 34.1 µM
GI50 [7]: 2.77 µM
TGI [7]: > 31.7 µM
GI50 [8]: 2.17 µM
TGI [8]: 10 µM
GI50 [9]: 3.13 µM
TGI [9]: 55.9 µM
GI50 [10]: 4.51 µM
TGI [10]: > 100 µM
